Source: patent publication US20260137689A1, “INTEGRATION OF MOLECULAR MECHANISMS IN THE STRIATUM AS A COMBINATION DRUG STRATEGY FOR THE TREATMENT OF PSYCHIATRIC AND NEUROLOGICAL DISORDERS IN WHICH ANHEDONIA OR MOTIVATION-RELATED DYSFUNCTION EXISTS” (Alto Neuroscience, Inc., priority 2021, published 2026)
Read-outs that look alike come from different tables or passages of the source.

How the values were obtained:
C57/BL6 mice = assay: Forced swim test; assay type: in vivo; conditions: FIG. 2 doses: imipramine 20 mg/kg, istradefylline 0.1 mg/kg, varenicline 0.17 mg/kg, alone or combined
Procedure: FIG. 2 is a bar graph of the time during a forced swim test after treatment with saline, 20 mg/kg for imipramine, 0.1 mg/kg for istradefylline, 0.17 mg/kg for varenicline, and a combination of 0.1 mg/kg for istradefylline and 0.17 mg/kg for varenicline.
Without being bound by a particular theory, the inventors theorized that an increase in dopamine release, when coupled with A2A antagonism, could result in an antidepressant response-essentially aiming to replace direct D2 agonism with a drug that leads to its release and to an increase in D2/D3 receptor availability. […] Of note, however, varenicline has been approved in humans for smoking cessation, and initially carried a black box for increased risk for development of depression, a seemingly opposite outcome to our goal. To determine whether such a combination is viable, we conducted forced swim tests in C57/BL6 mice. […] One such example is 5 mg-40 mg of istradefylline together with 0.25-3 mg of varenicline.
To determine whether such a combination is viable, forced swim tests in C57/BL6 mice were conducted. The forced-swim test is used to assess depressive-like behavior in mice. The time spent immobile is considered a measure of depressive-like behavior. Immobility scores for each mouse were determined by manual scoring.

D2 receptor = conditions: striatal slices from reserpinized rats (ref. 33); cited from earlier work
dopamine release [1] = conditions: humans (ref. 44); cited from earlier work
Parkinson's models = Parkinson's models (ref. 47); cited from earlier work
D2/D3 receptor = conditions: rodents (refs. 45, 46); cited from earlier work
dopamine release [2] = conditions: rodents (ref. 43); cited from earlier work
[3] = test system: release of gamma-aminobutyric acid (GABA); conditions: cited from earlier work

## CN(C)CCCN1c2ccccc2CCc2ccccc21 [imipramine]
C57/BL6 mice
  antidepressant response (time spent immobile) in forced swim test: decrease in immobility

## CCNC(=O)[C@H]1O[C@@H](n2cnc3c(N)nc(NCCc4ccc(CCC(=O)O)cc4)nc32)[C@H](O)[C@@H]1O [CGS 21680]
D2 receptor
  effect on affinity of the D2 receptor for the D2/D3 agonist quinpirole: decreased the affinity

## c1cnc2cc3c(cc2n1)[C@@H]1CNC[C@H]3C1 [varenicline]
C57/BL6 mice
  antidepressant response (time spent immobile) in forced swim test: by themselves ineffective
Dopamine release [1]
  dopamine release: increase dopamine release
Parkinson's models
  motor functioning: improve motor functioning
D2/D3 receptor
  D2/D3 receptor availability: increase D2/D3 receptor availability
Dopamine release [2]
  dopamine release: increase dopamine release

## Nc1nc(NCCc2ccc(O)cc2)nc2nc(-c3ccco3)nn12 [ZM 241385]
D2 receptor
  effect on affinity of the D2 receptor for the D2/D3 agonist quinpirole: increased the affinity

## NC(C(=O)O)c1cc(O)ccc1Cl (racemic) [CHPG, (RS)-2-chloro-5-hydroxyphenylglycine]
[3]; alone (ref. 38)
  effect on GABA release by itself: ineffective by itself
[3]; with the D2/D3 agonist quinpirole (ref. 38)
  effect on quinpirole-induced change of neuronal activity (GABA release): able to counteract the effects
